Measured values: patent publication US9475802B2, “Inhibitors of viral replication, their process of preparation and their therapeutical uses” (LABORATOIRE BIODIM, priority 2012, dated 2016)

Tested on: NL4-3 strain of HIV-1
Assay: Inhibition of HIV replication: cyto-protection in Cell-Titer-Glo viability assay, MT4 cells infected with NL4-3 virus
Assay type: cell-based
Conditions: Human immunodeficiency virus 1, NL43, 120 h, concentration leading to 50% of cyto-protection, 5 days incubation, CellTiter-Glo luminescence
Procedure: The antiviral activity, particularly against HIV, of compounds according to the invention is evaluated by the protocol described below.
Preparation of Virus Stock of the NL4-3 Strain of HIV-1 (Adachi et al, J Virol, 1986, 59(2):284-91).
The virus was prepared as described in Lopez et al (Lopez et al, Proc Natl Acad Sci USA., 2006, 103(40):14947-52, by transfecting 2×10^6 293 T cells (CRL-1573, ATCC) with following modifications: 6 μg of NL4-3 proviral DNA molecular clone were mixed with Fugene 6 transfection reagent from Roche, and used according to manufacturer's instructions. Forty eight hours later, transfected cell supernatants were harvested, filtered through 0.45-μm-pore-size filters, quantified for HIV-1 p24 antigen by using a Innotest HIV antigen mAb assay (Ingen) according to manufacturer's instructions, and used in infection experiments.
Serial dilutions of compounds to be tested were prepared in complete RPMI medium from 10 mM DMSO stock solutions, and distributed in a volume of 20 μL in 96 well Falcon 353072 Microtest™ tissue culture plate, in order to get 0.5% DMSO final concentration in each well, after the addition of infected cells. Control wells contained also 0.5% DMSO final concentration but no compound.
MT^4 cells (from the NIH AIDS Research and Reference Reagent Program) in RPMI complete medium were counted (10×10^6 cells per well in Falcon 353047 Multiwell™ 24 well) and infected for 2 hours at 37°, at a multiplicity of infection (moi) of 0.0001-0.00001. Cells were then centrifuged 3 min at 3000 rpm, and washed two times in 1 ml PBS to remove viruses that have not entered in cells. Infected cells were resuspended in complete RPMI at 1.25×10^6 cells/ml, and 80 μl of infected cells were distributed in each well containing compounds to be tested or control wells. The plates were then incubated at 37° for 5 days.
Assay Used to Measure the Inhibition of HIV Replication by the Compounds (According to (According to Gregg S. Jones et al., Antimicrobial Agents and Chemotherapy, 2009, 53 (3): 1194-1203).
After 5 days of incubation, 50 μl of CellTiter-Glo reagent (Promega Biosciences, Inc., Madison Wis., USA) were added to each well. Cell lysis was carried out at room temperature during 10 min, 150 μl of lysates were transferred in Packard Optiplate 96 well, and luminescence was read on a Fluoroskan (Thermo Scientific).
The EC50, or effective concentration 50, is the concentration of compound leading to 50% of cyto-protection in a Cell-Titer-Glo® viability assay based on MT^4 cells infected with NL4-3 virus (table 1).

Row | SMILES | EC50 [nM]
1 | CC(C)(C)OC(C(=O)O)c1c(C(F)(F)F)ccc(-c2ccccc2)c1-c1ccc2c(c1)CCCO2 (stereo not shown) [Example 1, 2-(tert-butoxy)-2-[2-(3,4-dihydro-2H-1-benzopyran-6-yl)-3-phenyl-6-(trifluoromethyl)phenyl]acetic acid] | 260
2 | CC(C)(C)OC(C(=O)O)c1c(C(F)(F)F)ccc(-c2ccncc2)c1-c1ccc2c(c1)CCCO2 (stereo not shown) [Example 2, 2-(tert-butoxy)-2-[2-(3,4-dihydro-2H-1-benzopyran-6-yl)-3-(pyridin-4-yl)-6-(trifluoromethyl)phenyl]acetic acid] | 250
3 | CC(C)(C)OC(C(=O)O)c1c(C(F)(F)F)ccc(C2=CCCC2)c1-c1ccc2c(c1)CCCO2 (stereo not shown) [Example 3, 2-(tert-butoxy)-2-[3-(cyclopent-1-en-1-yl)-2-(3,4-dihydro-2H-1-benzopyran-6-yl)-6-(trifluoromethyl)phenyl]acetic acid] | 400
4 | Cn1cc(-c2ccc(C(F)(F)F)c(C(OC(C)(C)C)C(=O)O)c2-c2ccc3c(c2)CCCO3)cn1 (stereo not shown) [Example 4, 2-(tert-butoxy)-2-[2-(3,4-dihydro-2H-1-benzopyran-6-yl)-3-(1-methyl-1H-pyrazol-4-yl)-6-(trifluoromethyl)phenyl]acetic acid] | 120
5 | CC(C)(C)OC(C(=O)O)c1c(C(F)(F)F)ccc(-n2ccc(-c3ccccc3)n2)c1-c1ccc2c(c1)CCCO2 (stereo not shown) [Example 5, 2-(tert-butoxy)-2-[2-(3,4-dihydro-2H-1-benzopyran-6-yl)-3-(3-phenyl-1H-pyrazol-1-yl)-6-(trifluoromethyl)phenyl]acetic acid] | 760
6 | CC(C)(C)OC(C(=O)O)c1c(C(F)(F)F)ccc(-c2ccnc(OCc3ccccc3)c2)c1-c1ccc2c(c1)CCCO2 (stereo not shown) [Example 6, 2-{3-[2-(benzyloxy)pyridin-4-yl]-2-(3,4-dihydro-2H-1-benzopyran-6-yl)-6-(trifluoromethyl)phenyl}-2-(tert-butoxy)acetic acid] | 260
7 | CC(C)(C)OC(C(=O)O)c1c(C(F)(F)F)ccc(-c2cccs2)c1-c1ccc2c(c1)CCCO2 (stereo not shown) [Example 7, 2-(tert-butoxy)-2-[2-(3,4-dihydro-2H-1-benzopyran-6-yl)-3-(thiophen-2-yl)-6-(trifluoromethyl)phenyl]acetic acid] | 300
8 | COc1ccc(-c2ccc(C(F)(F)F)c(C(OC(C)(C)C)C(=O)O)c2-c2ccc3c(c2)CCCO3)cc1 (stereo not shown) [Example 8, 2-(tert-butoxy)-2-[2-(3,4-dihydro-2H-1-benzopyran-6-yl)-3-(4-methoxyphenyl)-6-(trifluoromethyl)phenyl]acetic acid] | 240
9 | CC(C)(C)OC(C(=O)O)c1c(C(F)(F)F)ccc(-n2cc(Br)cn2)c1-c1ccc2c(c1)CCCO2 (stereo not shown) [Example 9, 2-[3-(4-bromo-1H-pyrazol-1-yl)-2-(3,4-dihydro-2H-1-benzopyran-6-yl)-6-(trifluoromethyl)phenyl]-2-(tert-butoxy)acetic acid] | 360
10 | CC(C)(C)OC(C(=O)O)c1c(C(F)(F)F)ccc(-n2cc(Cl)cn2)c1-c1ccc2c(c1)CCCO2 (stereo not shown) [Example 10, 2-[3-(4-chloro-1H-pyrazol-1-yl)-2-(3,4-dihydro-2H-1-benzopyran-6-yl)-6-(trifluoromethyl)phenyl]-2-(tert-butoxy)acetic acid] | 480
11 | CC1(C)CC=C(c2c(-c3ccncc3)ccc(C(F)(F)F)c2C(OC(C)(C)C)C(=O)O)CC1 (stereo not shown) [Example 11, 2-(tert-butoxy)-2-[2-(4,4-dimethylcyclohex-1-en-1-yl)-3-(pyridin-4-yl)-6-(trifluoromethyl)phenyl]acetic acid] | 910
12 | CC(C)(C)OC(C(=O)O)c1c(C(F)(F)F)ccc(-c2cnn3ccccc23)c1-c1ccc2c(c1)CCCO2 (stereo not shown) [Example 12, 2-(tert-butoxy)-2-[2-(3,4-dihydro-2H-1-benzopyran-6-yl)-3-{pyrazolo[1,5-a]pyridin-3-yl}-6-(trifluoromethyl)phenyl]acetic acid] | 420
13 | CC(C)(C)OC(C(=O)O)c1c(C(F)(F)F)ccc(-c2ccc(C(N)=O)cc2)c1-c1ccc2c(c1)CCCO2 (stereo not shown) [Example 13, 2-(tert-butoxy)-2-[3-(4-carbamoylphenyl)-2-(3,4-dihydro-2H-1-benzopyran-6-yl)-6-(trifluoromethyl)phenyl]acetic acid] | 830
14 | CC(C)(C)OC(C(=O)O)c1c(C(F)(F)F)ccc(-c2cccc(C(N)=O)c2)c1-c1ccc2c(c1)CCCO2 (stereo not shown) [Example 14, 2-(tert-butoxy)-2-[3-(3-carbamoylphenyl)-2-(3,4-dihydro-2H-1-benzopyran-6-yl)-6-(trifluoromethyl)phenyl]acetic acid] | 780
15 | Cn1cc(-c2ccc(C(F)(F)F)c(C(OC(C)(C)C)C(=O)O)c2C2=CCC(C)(C)CC2)cn1 (stereo not shown) [Example 15, 2-(tert-butoxy)-2-[2-(4,4-dimethylcyclohex-1-en-1-yl)-3-(1-methyl-1H-pyrazol-4-yl)-6-(trifluoromethyl)phenyl]acetic acid] | 150
16 | CC(C)(C)OC(C(=O)O)c1c(C(F)(F)F)ccc(-c2ccncn2)c1-c1ccc2c(c1)CCCO2 (stereo not shown) [Example 16, 2-(tert-butoxy)-2-[2-(3,4-dihydro-2H-1-benzopyran-6-yl)-3-(pyrimidin-4-yl)-6-(trifluoromethyl)phenyl]acetic acid] | 940
17 | CC(C)(C)OC(C(=O)O)c1c(C(F)(F)F)ccc(-c2ccncc2F)c1-c1ccc2c(c1)CCCO2 (stereo not shown) [Example 17, 2-(tert-butoxy)-2-[2-(3,4-dihydro-2H-1-benzopyran-6-yl)-3-(3-fluoropyridin-4-yl)-6-(trifluoromethyl)phenyl]acetic acid] | 250
18 | CNC(=O)c1ccc(-c2ccc(C(F)(F)F)c(C(OC(C)(C)C)C(=O)O)c2-c2ccc3c(c2)CCCO3)cc1 (stereo not shown) [Example 19, 2-(tert-butoxy)-2-[2-(3,4-dihydro-2H-1-benzopyran-6-yl)-3-[4-(methylcarbamoyl)phenyl]-6-(trifluoromethyl)phenyl]acetic acid] | 330
19 | CC(C)(C)OC(C(=O)O)c1c(C(F)(F)F)ccc(-c2ccc(N)cc2)c1-c1ccc2c(c1)CCCO2 (stereo not shown) [Example 20, 2-[3-(4-aminophenyl)-2-(3,4-dihydro-2H-1-benzopyran-6-yl)-6-(trifluoromethyl)phenyl]-2-(tert-butoxy)acetic acid] | 150
20 | CC(=O)Nc1ccc(-c2ccc(C(F)(F)F)c(C(OC(C)(C)C)C(=O)O)c2-c2ccc3c(c2)CCCO3)cc1 (stereo not shown) [Example 21, 2-(tert-butoxy)-2-[3-(4-acetamidophenyl)-2-(3,4-dihydro-2H-1-benzopyran-6-yl)-6-(trifluoromethyl)phenyl]acetic acid] | 170
21 | CC(C)(C)OC(C(=O)O)c1c(C(F)(F)F)ccc(-c2cnn(CC(F)(F)F)c2)c1-c1ccc2c(c1)CCCO2 (stereo not shown) [Example 22, 2-(tert-butoxy)-2-{2-(3,4-dihydro-2H-1-benzopyran-6-yl)-3-[1-(2,2,2-trifluoroethyl)-1H-pyrazol-4-yl]-6-(trifluoromethyl)phenyl}acetic acid] | 320
22 | CC(C)(C)OC(C(=O)O)c1c(C(F)(F)F)ccc(-c2cccc(N)c2)c1-c1ccc2c(c1)CCCO2 (stereo not shown) [Example 23, 2-[3-(3-aminophenyl)-2-(3,4-dihydro-2H-1-benzopyran-6-yl)-6-(trifluoromethyl)phenyl]-2-(tert-butoxy)acetic acid] | 190
23 | CC(=O)Nc1cccc(-c2ccc(C(F)(F)F)c(C(OC(C)(C)C)C(=O)O)c2-c2ccc3c(c2)CCCO3)c1 (stereo not shown) [Example 24, 2-(tert-butoxy)-2-[3-(3-acetamidophenyl)-2-(3,4-dihydro-2H-1-benzopyran-6-yl)-6-(trifluoromethyl)phenyl]acetic acid] | 290
24 | CCCn1cc(-c2ccc(C(F)(F)F)c(C(OC(C)(C)C)C(=O)O)c2-c2ccc3c(c2)CCCO3)ccc1=O (stereo not shown) [Example 25, 2-(tert-butoxy)-2-[2-(3,4-dihydro-2H-1-benzopyran-6-yl)-3-(6-oxo-1-propyl-1,6-dihydropyridin-3-yl)-6-(trifluoromethyl)phenyl]acetic acid] | 220
25 | CC(C)(C)OC(C(=O)O)c1c(C(F)(F)F)ccc(-c2ccc(=O)n(Cc3ccccc3)c2)c1-c1ccc2c(c1)CCCO2 (stereo not shown) [Example 26, 2-[3-(1-benzyl-6-oxo-1,6-dihydropyridin-3-yl)-2-(3,4-dihydro-2H-1-benzopyran-6-yl)-6-(trifluoromethyl)phenyl]-2-(tert-butoxy)acetic acid] | 440
